From article PMC7994819, “Pharmacokinetics and metabolomics investigation of an orally modified formula of standardized Centella asiatica extract in healthy volunteers” (Scientific Reports, 2021)
Read-outs that look alike come from different tables or passages of the source.

Columns and labels:
[1] = Clinical pharmacokinetics in plasma (LC–MS/MS, non-compartmental analysis) after oral modified formula ECa 233 capsules; assay type: in vivo, human (healthy Thai volunteers)
Experimental: This was a single-center, with an open-label, two-sequence of dosages (250 and 500 mg), two-periods of study (single and multiple dose) conducted in fasting condition (Fig. 1). […] All blood samples were centrifuged at 4 °C, 3200 × g for 10 min. […] Feces were also collected from one of the volunteers for detecting the possible presence of any eliminated compounds. Feces samples were collected each time that a volunteer defecated on day 1-3, 4-6 and 7-9 during the study period. These samples were immediately fixed with methanol and prepared by our previously described method of protein precipitation. […] Plasma, urine and fecal samples were then stored at - 80 °C until analysis. […] Then they had another set of blood and urine samples collected similar to the single dose study. […] Sample preparation was performed by protein precipitation with two internal standards (glycerrhizin and […]) to correct the quantitative analysis of parent compounds and of their metabolites. Briefly, 200 μL of methanol was added followed by vortex mixing with 50 μL of each sample for 10 min and then centrifuged at 12,000 × g, 4 °C, 10 min. Quantitative determination of the parent compounds and their active metabolites in plasma and urine were carried out by using liquid chromatography tandem mass spectrometry (LC-MS/MS): LCMS-8060 (Shimadzu Corp. Japan) according to a previously validated and published bioanalytical method. […] The MS/MS system was operated using an ESI source in negative mode with MRM. For m/z transition; […] Non-compartmental analysis was applied to determine pharmacokinetic parameters and performed by PK solutions software (version 2.0). […] The apparent clearance (Cl/F) after oral administration was calculated as Cl/F = Dose/AUC, where F is the absolute oral bioavailability. The apparent volume of distribution (Vd/F) was estimated using Vd/F = Dose/(AUC × kel). The Cmax and Tmax were determined directly from the observed concentration-time curve.

[2] = Urine and feces excretion after oral modified formula ECa 233 capsules (LC–MS/MS); assay type: in vivo, human (healthy Thai volunteers)
Experimental: This was a single-center, with an open-label, two-sequence of dosages (250 and 500 mg), two-periods of study (single and multiple dose) conducted in fasting condition (Fig. 1). […] All blood samples were centrifuged at 4 °C, 3200 × g for 10 min. […] Feces were also collected from one of the volunteers for detecting the possible presence of any eliminated compounds. Feces samples were collected each time that a volunteer defecated on day 1-3, 4-6 and 7-9 during the study period. These samples were immediately fixed with methanol and prepared by our previously described method of protein precipitation. […] Plasma, urine and fecal samples were then stored at - 80 °C until analysis. Sample preparation was performed by protein precipitation with two internal standards (glycerrhizin and […]) to correct the quantitative analysis of parent compounds and of their metabolites. Briefly, 200 μL of methanol was added followed by vortex mixing with 50 μL of each sample for 10 min and then centrifuged at 12,000 × g, 4 °C, 10 min. […] The MS/MS system was operated using an ESI source in negative mode with MRM.

[3] = in vivo; cited from earlier work
[4] = human, plasma, po, 250 mg, plasma, multiple dose oral, Day 7 (T0-72 h), ECa 233 250 mg daily, mean ± SD, n=12, read-out: AUC
[5] = human, plasma, po, 250 mg, plasma, multiple dose oral, Day 7 (T0-72 h), ECa 233 250 mg daily, mean ± SD, n=12, read-out: Cmax
[6] = human, plasma, po, 250 mg, plasma, multiple dose oral, Day 7 (T0-72 h), ECa 233 250 mg daily, median [IQR], n=12, read-out: Tmax
[7] = human, plasma, po, 250 mg, plasma, single dose oral, Day 1 (T0-24 h), ECa 233 250 mg, mean ± SD, n=12, read-out: AUC
[8] = human, plasma, po, 250 mg, plasma, single dose oral, Day 1 (T0-24 h), ECa 233 250 mg, mean ± SD, n=12, read-out: Cmax
[9] = human, plasma, po, 250 mg, plasma, single dose oral, Day 1 (T0-24 h), ECa 233 250 mg, median [IQR], n=12, read-out: Tmax
[10] = human, plasma, po, 500 mg, plasma, multiple dose oral, Day 7 (T0-72 h), ECa 233 500 mg daily, mean ± SD, n=11, read-out: AUC
[11] = human, plasma, po, 500 mg, plasma, multiple dose oral, Day 7 (T0-72 h), ECa 233 500 mg daily, mean ± SD, n=11, read-out: Cmax
[12] = human, plasma, po, 500 mg, plasma, multiple dose oral, Day 7 (T0-72 h), ECa 233 500 mg daily, median [IQR], n=11, read-out: Tmax
[13] = human, plasma, po, 500 mg, plasma, single dose oral, Day 1 (T0-24 h), ECa 233 500 mg, mean ± SD, n=11, read-out: AUC
[14] = human, plasma, po, 500 mg, plasma, single dose oral, Day 1 (T0-24 h), ECa 233 500 mg, mean ± SD, n=11, read-out: Cmax
[15] = human, plasma, po, 500 mg, plasma, single dose oral, Day 1 (T0-24 h), ECa 233 500 mg, median [IQR], n=11, read-out: Tmax
[16] = plasma, oral modified formula ECa 233 capsules

AUC [1, 4] | Cmax [1, 5] | Tmax [1, 6] | AUC [1, 7] | Cmax [1, 8] | Tmax [1, 9] | AUC [1, 10] | Cmax [1, 11] | Tmax [1, 12] | AUC [1, 13] | Cmax [1, 14] | Tmax [1, 15] | time after dosing at which Cmax was observed [1, 16] | Molecule | also measured
0.437 ± 0.175 µg·h/mL | 0.0614 ± 0.0205 µg/mL | 2 h | 0.41 ± 0.1 µg·h/mL | 0.0661 ± 0.0171 µg/mL | 1.5 h | 0.516 ± 0.157 µg·h/mL | 0.0998 ± 0.0276 µg/mL | 1.5 h | 0.476 ± 0.117 µg·h/mL | 0.0723 ± 0.0163 µg/mL | 1.5 h | 1 to 2 h | C[C@H]1[C@H](C)CC[C@]2(C(=O)O)CC[C@]3(C)C(=CC[C@@H]4[C@@]5(C)C[C@@H](O)[C@H](O)[C@@](C)(CO)[C@@H]5[C@H](O)C[C@]43C)[C@H]12 [MDA, Madecassic acid] | 
1.01 ± 0.221 µg·h/mL | 0.0782 ± 0.0264 µg/mL | 1.5 h | 0.648 ± 0.117 µg·h/mL | 0.0798 ± 0.0193 µg/mL | 1.5 h | 1.39 ± 0.333 µg·h/mL | 0.17 ± 0.0538 µg/mL | 1.5 h | 0.733 ± 0.15 µg·h/mL | 0.102 ± 0.0208 µg/mL | 1.5 h | 1 to 2 h | C[C@H]1[C@H](C)CC[C@]2(C(=O)O)CC[C@]3(C)C(=CC[C@@H]4[C@@]5(C)C[C@@H](O)[C@H](O)[C@@](C)(CO)[C@@H]5CC[C@]43C)[C@H]12 [ASA, Asiatic acid] | presence in feces ([2]; fecal samples from one volunteer): found in the feces; elimination into urine ([2]; urine 0–24 h after oral dosing of 250 or 500 mg ECa 233): absence of the metabolites in the urine
 |  |  |  |  |  |  |  |  |  |  |  |  | Madecassoside [MDS] | excretion (0–72 h) in feces [3]: 24.68%; excretion (0–72 h) in urine [3]: 0.25%; time after dosing at which Cmax was observed ([1]; human, in vivo, po): ≤ 1 h; AUC ([1]; human, in vivo, po, 250 mg): 0.07538 ± 0.0266 µg·h/mL; Cmax ([1]; human, in vivo, po, 250 mg): 0.00957 ± 0.00334 µg/mL; Tmax ([1]; human, in vivo, po, 250 mg): 1 [0.5] h; AUC ([1]; human, in vivo, po, 500 mg): 0.14116 ± 0.04115 µg·h/mL; Cmax ([1]; human, in vivo, po, 500 mg): 0.01273 ± 0.00273 µg/mL; Tmax ([1]; human, in vivo, po, 500 mg): 1 [0.5] h
